According to paper PMC9744561 (Genes, Brain, and Behavior, 2022):

Target: T1, Octα2R (α2-adrenergic-like octopamine receptor) (Drosophila melanogaster, UniProt Q9VE32)
T1 sequence (Q9VE32 1-699): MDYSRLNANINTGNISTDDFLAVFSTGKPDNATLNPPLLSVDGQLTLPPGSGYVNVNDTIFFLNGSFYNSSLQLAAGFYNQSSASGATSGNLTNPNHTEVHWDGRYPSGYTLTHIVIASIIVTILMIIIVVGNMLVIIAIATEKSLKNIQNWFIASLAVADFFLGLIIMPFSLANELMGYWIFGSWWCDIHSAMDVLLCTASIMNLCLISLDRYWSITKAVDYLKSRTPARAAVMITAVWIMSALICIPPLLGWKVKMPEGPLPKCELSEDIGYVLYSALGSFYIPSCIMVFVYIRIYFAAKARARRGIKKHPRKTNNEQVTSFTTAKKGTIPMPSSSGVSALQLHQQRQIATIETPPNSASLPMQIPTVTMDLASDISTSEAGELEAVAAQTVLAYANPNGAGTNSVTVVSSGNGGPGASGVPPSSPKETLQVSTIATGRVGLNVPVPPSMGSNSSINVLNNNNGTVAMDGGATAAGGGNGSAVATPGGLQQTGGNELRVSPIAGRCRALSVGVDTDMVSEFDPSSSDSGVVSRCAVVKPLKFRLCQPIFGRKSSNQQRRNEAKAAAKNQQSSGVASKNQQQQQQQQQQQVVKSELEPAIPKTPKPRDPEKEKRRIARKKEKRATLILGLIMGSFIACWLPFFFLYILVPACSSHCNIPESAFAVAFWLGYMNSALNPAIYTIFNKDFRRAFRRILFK
Assay: aequorin Ca2+ luminescence, inhibition of octopamine response, HEK-293 cells
Format: cell-based

SMILES	IC50 [nM]
NC1=NCC2c3ccccc3Cc3ccccc3N12 (stereo not drawn) [EP, epinastine]	100
Cc1ccc(N(CC2=NCCN2)c2cccc(O)c2)cc1 [PA, phentolamine]	93
COC(=O)[C@@H]1[C@H]2C[C@H]3c4[nH]c5ccccc5c4CCN3C[C@@H]2CC[C@@H]1O [YO, yohimbine]	18000
